Measured values: PubChem BioAssay (NCI)
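Five concentrations, 48 hours, 96-well plates. Abbreviation: GI50, concentration required for 50% inhibition of growth. TGI: total growth inhibition.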

Legend:
Experiment in all cases: NCI anticancer screen, dose series, 48 h
UACC-62 melanoma = test system: UACC-62 melanoma
RPMI-8226 leukemia = test system: RPMI-8226 leukemia
CCRF-CEM leukemia = test system: CCRF-CEM leukemia
NCI-H522 lung = test system: NCI-H522 lung
NCI-H23 lung = test system: NCI-H23 lung
MALME-3M melanoma = test system: MALME-3M melanoma
SNB-19 CNS = test system: SNB-19 CNS
SNB-75 CNS = test system: SNB-75 CNS
MDA-MB-435 = test system: MDA-MB-435
SF-268 CNS = test system: SF-268 CNS
IGROV1 ovarian = test system: IGROV1 ovarian
U251 CNS = test system: U251 CNS
UO-31 renal = test system: UO-31 renal
MDA-MB-231 breast = test system: MDA-MB-231 breast
RXF 393 renal = test system: RXF 393 renal
OVCAR-5 ovarian = test system: OVCAR-5 ovarian
T-47D breast = test system: T-47D breast
TK-10 renal = test system: TK-10 renal
HL-60(TB) leukemia = test system: HL-60(TB) leukemia

Structure (SMILES)	TGI (UACC-62 melanoma) [µM]	TGI (RPMI-8226 leukemia) [µM]	TGI (CCRF-CEM leukemia) [µM]	TGI (NCI-H522 lung) [µM]	TGI (NCI-H23 lung) [µM]	TGI (MALME-3M melanoma) [µM]	TGI (SNB-19 CNS) [µM]	TGI (SNB-75 CNS) [µM]	TGI (MDA-MB-435) [µM]	TGI (SF-268 CNS) [µM]	TGI (IGROV1 ovarian) [µM]	TGI (U251 CNS) [µM]	TGI (UO-31 renal) [µM]	TGI (MDA-MB-231 breast) [µM]	TGI (RXF 393 renal) [µM]	TGI (OVCAR-5 ovarian) [µM]	TGI (T-47D breast) [µM]	TGI (TK-10 renal) [µM]	TGI (HL-60(TB) leukemia) [µM]	GI50 (UACC-62 melanoma) [µM]
COc1ccc2c(c1)CC[C@@H]1[C@@H]2CC[C@]2(C)C(=O)/C(=C/c3ccncc3)C[C@@H]12	> 100	> 100	> 100	92.1	> 100	77.3	> 100	> 100	92.4	> 100	> 100	> 100	> 100	> 100	46.7	> 100	> 100	> 100	–	–
CSCCCNC(=O)c1csc(-c2csc(CCN)n2)n1	> 100	> 100	> 100	> 100	> 100	> 100	> 100	–	> 100	> 100	> 100	> 100	> 100	> 100	> 100	> 100	> 100	> 100	> 100	–
O=C1/C(=C/c2ccccc2)N=C(c2ccccc2)N1C1Nc2cc3c(cc2S1)NC(N1C(=O)/C(=C/c2ccccc2)N=C1c1ccccc1)S3 (stereo not drawn)	–	68.4	> 100	0.0623	39.3	–	–	–	47.1	> 100	> 100	> 100	> 100	> 100	54.3	> 100	> 100	> 100	> 100	–
Cc1cc(C)n(-c2nc3ccccc3c(=O)n2-c2ccccc2)n1	–	–	> 100	> 100	> 100	> 100	> 100	> 100	> 100	> 100	> 100	> 100	14.3	> 100	> 100	> 100	> 100	> 100	> 100	–
CC#Cc1cc2c(cc1O)CC[C@@H]1[C@@H]2CC[C@]2(C)[C@@H](O)CC[C@@H]12	16.7	> 66.1	> 100	2.71	10.6	18.3	29.1	27.6	0.814	> 100	38.1	7.81	39	46.2	13.8	48.4	> 89.6	> 91.3	–	0.503
COc1ccc(C2=Nn3c(nc4sc(-c5ccccc5)cc4c3=O)SC2)cc1	> 100	> 100	> 100	> 100	> 100	> 100	–	–	> 100	> 100	> 100	> 100	> 100	> 100	–	> 100	> 100	> 100	> 100	–
O=C1C[C@@H](Sc2ccccc2)C2(OCCO2)[C@H]2ON3CCC[C@@H]3[C@@H]12	24.3	8.94	5.72	–	17.9	4.31	29	–	10	12.1	4.87	18	4.12	7.67	–	–	8.75	19.3	6.08	–
